Test [1] has as its target 5-hydroxytryptamine receptor 7 (Homo sapiens, UniProt P34969).
Description: Displacement of [3H]LSD from human 5HT7 receptor by liquid scintillation counting
Test [2] has as its target Sodium-dependent serotonin transporter (Homo sapiens, UniProt P31645).
Description: Displacement of [3H]Citalopram from human SERT by liquid scintillation counting
The target in test [3] is T1, 5-hydroxytryptamine receptor 2C (Homo sapiens, UniProt P28335).
T1 sequence (P28335 whole entry): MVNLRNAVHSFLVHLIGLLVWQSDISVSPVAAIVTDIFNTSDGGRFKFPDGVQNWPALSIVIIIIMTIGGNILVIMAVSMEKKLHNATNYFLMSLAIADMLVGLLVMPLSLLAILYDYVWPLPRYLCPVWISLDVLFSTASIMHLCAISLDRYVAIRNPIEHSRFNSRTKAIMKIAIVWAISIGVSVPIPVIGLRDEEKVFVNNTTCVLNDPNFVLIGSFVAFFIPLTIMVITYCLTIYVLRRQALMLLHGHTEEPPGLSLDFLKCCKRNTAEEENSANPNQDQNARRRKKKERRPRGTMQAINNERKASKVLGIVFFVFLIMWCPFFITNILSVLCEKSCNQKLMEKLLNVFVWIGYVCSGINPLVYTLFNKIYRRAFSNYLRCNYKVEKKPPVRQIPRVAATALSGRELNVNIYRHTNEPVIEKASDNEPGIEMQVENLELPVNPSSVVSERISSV
Description: (§1) Binding affinity to human 5HT2C receptor by radioligand displacement assay

Test [4] addresses T1, 5-hydroxytryptamine receptor 2C. The source holds these as a separate data set.
Description: as §1
In a further test the target is D(2) dopamine receptor (Homo sapiens, UniProt P14416).
D(2) dopamine receptor, sequence (P14416 whole entry): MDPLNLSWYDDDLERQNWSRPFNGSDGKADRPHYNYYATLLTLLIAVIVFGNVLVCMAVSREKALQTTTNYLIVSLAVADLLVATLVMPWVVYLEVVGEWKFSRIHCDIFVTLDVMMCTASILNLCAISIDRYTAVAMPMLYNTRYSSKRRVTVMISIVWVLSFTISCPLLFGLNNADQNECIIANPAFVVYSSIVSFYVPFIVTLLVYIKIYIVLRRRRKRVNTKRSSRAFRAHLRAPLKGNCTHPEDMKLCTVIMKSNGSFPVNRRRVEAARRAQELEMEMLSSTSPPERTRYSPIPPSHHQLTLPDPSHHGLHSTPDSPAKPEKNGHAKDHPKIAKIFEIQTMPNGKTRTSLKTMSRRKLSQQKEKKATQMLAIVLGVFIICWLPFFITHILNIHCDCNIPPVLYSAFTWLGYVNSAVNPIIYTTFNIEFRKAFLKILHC
In test [5] the target is 5-hydroxytryptamine receptor 2A (Homo sapiens, UniProt P28223).
5-hydroxytryptamine receptor 2A, sequence (P28223 whole entry): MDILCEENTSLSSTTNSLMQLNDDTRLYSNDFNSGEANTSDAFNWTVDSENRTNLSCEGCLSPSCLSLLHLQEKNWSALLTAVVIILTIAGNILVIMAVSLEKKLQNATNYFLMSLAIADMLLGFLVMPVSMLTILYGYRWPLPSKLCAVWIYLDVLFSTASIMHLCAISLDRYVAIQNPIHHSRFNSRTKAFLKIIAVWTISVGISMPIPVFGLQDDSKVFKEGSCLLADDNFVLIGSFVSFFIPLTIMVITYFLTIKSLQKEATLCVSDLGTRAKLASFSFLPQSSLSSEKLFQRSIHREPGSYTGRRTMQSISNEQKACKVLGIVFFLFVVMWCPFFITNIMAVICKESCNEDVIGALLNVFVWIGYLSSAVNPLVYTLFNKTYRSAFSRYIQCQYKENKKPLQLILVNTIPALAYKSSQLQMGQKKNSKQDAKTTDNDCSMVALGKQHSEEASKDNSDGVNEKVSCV
Description: Displacement of [3H]Ketanserin from human 5HT2A receptor by liquid scintillation counting
The target in another test is T2, D(4) dopamine receptor (Rattus norvegicus, UniProt P30729).
T2 sequence (P30729 whole entry): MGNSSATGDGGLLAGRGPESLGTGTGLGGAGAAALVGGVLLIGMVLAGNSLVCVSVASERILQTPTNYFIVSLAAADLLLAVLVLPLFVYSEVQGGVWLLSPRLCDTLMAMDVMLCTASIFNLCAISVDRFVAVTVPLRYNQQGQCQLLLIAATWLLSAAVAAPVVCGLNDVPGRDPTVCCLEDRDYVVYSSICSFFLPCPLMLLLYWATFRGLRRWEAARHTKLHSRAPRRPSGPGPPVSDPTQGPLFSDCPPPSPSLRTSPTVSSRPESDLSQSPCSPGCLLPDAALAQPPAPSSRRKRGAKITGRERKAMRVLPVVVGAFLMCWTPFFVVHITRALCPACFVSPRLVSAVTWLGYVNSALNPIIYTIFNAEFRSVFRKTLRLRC

Test [6] has as its target T3, 5-hydroxytryptamine receptor 1A (Homo sapiens, UniProt P08908).
T3 sequence (P08908 whole entry): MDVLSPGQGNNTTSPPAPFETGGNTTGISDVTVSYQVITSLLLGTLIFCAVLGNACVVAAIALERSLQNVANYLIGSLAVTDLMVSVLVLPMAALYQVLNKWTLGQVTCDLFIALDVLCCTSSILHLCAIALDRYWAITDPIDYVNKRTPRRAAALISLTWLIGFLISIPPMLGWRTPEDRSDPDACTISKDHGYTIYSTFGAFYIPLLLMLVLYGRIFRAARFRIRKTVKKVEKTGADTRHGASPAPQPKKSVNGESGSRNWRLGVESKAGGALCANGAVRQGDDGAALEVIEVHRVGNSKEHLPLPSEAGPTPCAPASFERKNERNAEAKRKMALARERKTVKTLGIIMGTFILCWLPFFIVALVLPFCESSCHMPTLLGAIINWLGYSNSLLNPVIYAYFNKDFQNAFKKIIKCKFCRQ
Description: Displacement of [3H]8-OH-DPAT from human 5HT1A receptor by liquid scintillation counting

The target in a further test is Histamine H1 receptor (Homo sapiens, UniProt P35367).
Histamine H1 receptor, sequence (P35367 whole entry): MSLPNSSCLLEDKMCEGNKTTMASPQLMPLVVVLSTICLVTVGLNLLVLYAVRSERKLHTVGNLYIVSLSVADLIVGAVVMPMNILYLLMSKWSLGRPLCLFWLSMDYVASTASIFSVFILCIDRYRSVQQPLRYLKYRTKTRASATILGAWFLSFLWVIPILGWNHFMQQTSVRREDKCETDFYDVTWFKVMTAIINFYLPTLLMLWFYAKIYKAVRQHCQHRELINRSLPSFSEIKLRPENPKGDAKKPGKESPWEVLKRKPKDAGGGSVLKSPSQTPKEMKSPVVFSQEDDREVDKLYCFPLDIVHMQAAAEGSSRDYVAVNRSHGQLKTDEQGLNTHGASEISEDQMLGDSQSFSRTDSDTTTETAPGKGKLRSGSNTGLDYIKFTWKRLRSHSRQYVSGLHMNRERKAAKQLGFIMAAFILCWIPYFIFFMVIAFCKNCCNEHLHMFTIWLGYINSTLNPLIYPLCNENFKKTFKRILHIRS
Test [7] concerns the target Sodium-dependent dopamine transporter (Homo sapiens, UniProt Q01959).
Description: Displacement of [3H]GBR12935 from human DAT by liquid scintillation assay
Test [8] addresses Sodium-dependent noradrenaline transporter (Homo sapiens, UniProt P23975).
Description: Displacement of [3H]Nisoxetine from human NET by liquid scintillation assay

This note sets out measurements from ChEMBL document CHEMBL2034919 (Eur J Med Chem, 2012).

Sodium-dependent serotonin transporter, sequence (P31645 whole entry): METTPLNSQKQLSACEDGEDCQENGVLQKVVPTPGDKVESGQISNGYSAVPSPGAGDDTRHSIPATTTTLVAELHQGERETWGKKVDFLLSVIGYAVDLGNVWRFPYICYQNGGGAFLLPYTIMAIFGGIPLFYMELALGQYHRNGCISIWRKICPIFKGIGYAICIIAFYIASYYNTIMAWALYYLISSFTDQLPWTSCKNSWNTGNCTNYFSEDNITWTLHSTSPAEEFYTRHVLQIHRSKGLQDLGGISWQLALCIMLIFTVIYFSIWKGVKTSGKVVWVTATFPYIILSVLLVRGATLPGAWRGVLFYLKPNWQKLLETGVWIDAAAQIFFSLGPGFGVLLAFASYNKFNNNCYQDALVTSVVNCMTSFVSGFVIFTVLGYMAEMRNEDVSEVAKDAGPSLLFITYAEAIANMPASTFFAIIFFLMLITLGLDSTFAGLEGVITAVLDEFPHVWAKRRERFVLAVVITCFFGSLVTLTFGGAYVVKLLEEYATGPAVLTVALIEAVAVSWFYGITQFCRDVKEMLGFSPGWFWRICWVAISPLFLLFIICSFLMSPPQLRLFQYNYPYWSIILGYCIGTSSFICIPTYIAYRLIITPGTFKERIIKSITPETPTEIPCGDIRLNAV
5-hydroxytryptamine receptor 7, sequence (P34969 whole entry): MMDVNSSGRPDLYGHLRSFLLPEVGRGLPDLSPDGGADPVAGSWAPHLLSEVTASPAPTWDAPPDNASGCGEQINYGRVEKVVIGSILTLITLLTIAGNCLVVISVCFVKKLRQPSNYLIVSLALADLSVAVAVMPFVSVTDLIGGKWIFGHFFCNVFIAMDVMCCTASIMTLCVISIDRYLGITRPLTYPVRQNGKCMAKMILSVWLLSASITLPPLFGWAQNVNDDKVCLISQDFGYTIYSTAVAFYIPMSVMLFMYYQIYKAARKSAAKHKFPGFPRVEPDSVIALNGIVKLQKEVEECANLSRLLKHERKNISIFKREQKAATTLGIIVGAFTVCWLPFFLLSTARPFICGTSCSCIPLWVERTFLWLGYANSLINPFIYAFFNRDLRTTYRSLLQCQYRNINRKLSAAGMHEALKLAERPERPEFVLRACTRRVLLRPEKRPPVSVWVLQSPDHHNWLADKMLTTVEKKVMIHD
Sodium-dependent noradrenaline transporter, sequence (P23975 whole entry): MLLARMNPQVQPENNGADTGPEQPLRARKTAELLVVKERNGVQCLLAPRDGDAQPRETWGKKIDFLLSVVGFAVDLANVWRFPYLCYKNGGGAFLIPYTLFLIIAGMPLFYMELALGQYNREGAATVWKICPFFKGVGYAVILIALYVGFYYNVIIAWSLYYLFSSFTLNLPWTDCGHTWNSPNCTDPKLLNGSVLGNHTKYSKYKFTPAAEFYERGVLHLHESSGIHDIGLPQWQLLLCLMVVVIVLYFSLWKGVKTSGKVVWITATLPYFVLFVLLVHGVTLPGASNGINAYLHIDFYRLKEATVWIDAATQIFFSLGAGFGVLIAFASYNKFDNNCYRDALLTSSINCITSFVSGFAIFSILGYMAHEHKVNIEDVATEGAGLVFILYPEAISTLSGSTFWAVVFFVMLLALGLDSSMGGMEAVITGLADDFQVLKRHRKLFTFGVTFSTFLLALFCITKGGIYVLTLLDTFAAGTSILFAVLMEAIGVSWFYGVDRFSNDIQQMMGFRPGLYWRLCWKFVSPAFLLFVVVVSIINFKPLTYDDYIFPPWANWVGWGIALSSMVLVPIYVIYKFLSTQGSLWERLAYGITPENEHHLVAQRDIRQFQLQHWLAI
Sodium-dependent dopamine transporter, sequence (Q01959 whole entry): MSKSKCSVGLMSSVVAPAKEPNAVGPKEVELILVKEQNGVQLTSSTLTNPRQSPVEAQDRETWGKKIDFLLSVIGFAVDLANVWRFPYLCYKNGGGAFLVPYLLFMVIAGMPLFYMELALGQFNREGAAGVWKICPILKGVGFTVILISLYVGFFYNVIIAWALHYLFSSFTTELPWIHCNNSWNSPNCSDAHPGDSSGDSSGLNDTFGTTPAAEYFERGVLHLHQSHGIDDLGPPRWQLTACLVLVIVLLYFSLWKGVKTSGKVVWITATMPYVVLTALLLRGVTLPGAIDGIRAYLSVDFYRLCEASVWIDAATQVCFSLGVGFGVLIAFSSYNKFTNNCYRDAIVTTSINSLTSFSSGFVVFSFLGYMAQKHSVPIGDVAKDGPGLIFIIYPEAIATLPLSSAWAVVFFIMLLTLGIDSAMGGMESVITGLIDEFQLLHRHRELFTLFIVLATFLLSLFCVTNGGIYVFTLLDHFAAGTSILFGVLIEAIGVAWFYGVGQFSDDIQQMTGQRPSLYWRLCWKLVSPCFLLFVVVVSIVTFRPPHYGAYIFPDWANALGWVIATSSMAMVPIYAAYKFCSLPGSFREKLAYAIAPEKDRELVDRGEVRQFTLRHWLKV
Description for D(2) dopamine receptor: Displacement of [3H]N-methylspiperone from human dopamine D2 receptor by liquid scintillation counting
Description for D(4) dopamine receptor: Displacement of [3H]N-methylspiperone from rat dopamine D4 receptor by liquid scintillation counting
Description for Histamine H1 receptor: Displacement of [3H]Pyrilamine from human H1 histamine receptor by liquid scintillation assay

The term Ki denotes a measure of affinity in units of concentration, obtained from inhibition or displacement. Turning to `Clc1ccc(N2CCCN(CCCCc3nc4ccccc4s3)CC2)cc1`, the results for the Ki in test [1] (read-out: Ki) and in [2] (read-out: Ki) were 413 nM and 65 nM, respectively.
Turning to `Clc1ccc(N2CCCN(CCCc3nc4ccccc4s3)CC2)cc1`, the Ki in test [1] (read-out: Ki) is 2060 nM; in [3] it was “Not Active”; in test [2] (read-out: Ki) it was 34 nM.
Regarding `O=C(CCCCN1CCCN(c2ccc(Cl)cc2)CC1)c1nc2ccccc2s1`, the Ki in test [1] (read-out: Ki) worked out at 2810 nM; in test [2] (read-out: Ki), 65 nM.
With `O=C(CCCN1CCCN(c2ccc(Cl)cc2)CC1)c1nc2ccccc2s1`, the Ki in [1] (read-out: Ki) worked out at 356 nM; in test [2] (read-out: Ki) it was 5.3 nM.
On to `Clc1ccc(N2CCN(CCCc3nc4ccccc4s3)CC2)cc1`, for which the Ki turned out to be 4650 nM in test [4]; 2320 nM on D(2) dopamine receptor; 36 nM in test [5]; 790 nM in [1] (read-out: Ki); 1180 nM in test [2] (read-out: Ki); 31 nM on D(4) dopamine receptor (read-out: Ki). Besides, the Ki in [6] worked out at 312 nM.
Take `Clc1ccc(N2CCN(CCCCc3nc4ccccc4s3)CC2)cc1`: the Ki in test [4] is 6210 nM; on D(2) dopamine receptor, 219 nM; in test [5], 132 nM; in test [1] (read-out: Ki) it was 329 nM; in test [2] (read-out: Ki), 166 nM; on D(4) dopamine receptor (read-out: Ki) it was 4 nM. In addition, in test [6], the Ki was 90.5 nM.
For the compound `OC1(c2ccc(Cl)cc2)CCN(CCCCc2nc3ccccc3s2)CC1`, the Ki is 201 nM at D(2) dopamine receptor; 4260 nM in test [5]; 983 nM in test [1] (read-out: Ki); “Not Active” in [3]; 922 nM in [2] (read-out: Ki); 140 nM on D(4) dopamine receptor (read-out: Ki). The compound further returned a Ki in test [6] of 771 nM.
Regarding `O=C(CCCN1CCC(c2ccccc2)CC1)c1nc2ccccc2s1`, the Ki on D(2) dopamine receptor was 530 nM; in test [3] it was “Not Active”; at D(4) dopamine receptor (read-out: Ki) it was 44.4 nM; in test [6], 85 nM.
For the compound `O=C(CCCN1CCN(c2ncccn2)CC1)c1nc2ccccc2s1`, the Ki entry is “Not Active” in [3], “Not Active” in [2], 51.5 nM at D(4) dopamine receptor (read-out: Ki) and 63 nM in [6].
`O=C(CCCCN1CCC(n2c(=O)[nH]c3cc(Cl)ccc32)CC1)c1nc2ccccc2s1`: the Ki at D(2) dopamine receptor was 217 nM; in test [5], 1560 nM; in test [3] it was “Not Active”; in test [2] (read-out: Ki), 565 nM; at D(4) dopamine receptor (read-out: Ki), 1710 nM; in [6], 252 nM.
For `c1cnc(N2CCN(CCCCc3nc4ccccc4s3)CC2)nc1`, the Ki was above 10000 nM in test [4]; 224 nM in test [5]; 229 nM in [1] (read-out: Ki); “Not Active” in [2]; 0.8 nM at D(4) dopamine receptor (read-out: Ki).
As for `c1ccc2c(c1)CCN(CCCCc1nc3ccccc3s1)C2`, the Ki was determined as 6270 nM in [4]; 30.8 nM on D(2) dopamine receptor; 3810 nM in [5]; 35.6 nM in test [1] (read-out: Ki); 1320 nM in [2] (read-out: Ki); 65.5 nM at D(4) dopamine receptor (read-out: Ki). For the same compound, the affinity in test [6], expressed as Ki, was 5.1 nM.
As for `c1ccc2c(c1)CN(CCCCc1nc3ccccc3s1)C2`, the inhibition constant (Ki) is 990 nM on D(2) dopamine receptor; above 10000 nM in [5]; 211 nM in [1] (read-out: Ki); “Not Active” in [3]; 186 nM in test [2] (read-out: Ki); 141 nM on D(4) dopamine receptor (read-out: Ki). In addition, the Ki in test [6] worked out at 111 nM.
Turning to `O=C(CCCN1CCN(c2ccc(Cl)cc2)CC1)c1nc2ccccc2s1`, the Ki at D(2) dopamine receptor was 8360 nM; in test [5] it was 2000 nM; in test [1] it was “Not Active”; in test [3], “Not Active”; in test [2] (read-out: Ki), 491 nM; on D(4) dopamine receptor (read-out: Ki) it was 342 nM. The compound further came in with a Ki in [6] above 10000 nM.
In the case of `O=C(CCCN1CCN(c2ccccc2)CC1)c1nc2ccccc2s1`, the Ki on D(2) dopamine receptor was above 10000 nM; in test [5], above 10000 nM; in test [1], “Not Active”; in test [3] it was “Not Active”; in [2] (read-out: Ki), above 10000 nM; on D(4) dopamine receptor, “Not Active”. For the same compound, affinity in [6] was put at a Ki of 350 nM.
As for `O=C(CCCCN1CCC2(CC1)C(=O)NCN2c1ccccc1)c1nc2ccccc2s1`, the Ki in [5] was 3720 nM; in test [1] (read-out: Ki) it was 518 nM; in test [3] it was “Not Active”; in test [2] (read-out: Ki) it was 284 nM; at D(4) dopamine receptor (read-out: Ki), 162 nM; in test [6], 103 nM.
As to `O=C(CCCCN1Cc2ccccc2C1)c1nc2ccccc2s1`, the Ki in [5] is above 10000 nM; in test [3], “Not Active”; at D(4) dopamine receptor (read-out: Ki) it was 512 nM.
As for `O=C(CCCCN1CCN(c2ccc(Cl)cc2)CC1)c1nc2ccccc2s1`, the Ki was 4790 nM at D(2) dopamine receptor; 523 nM in test [5]; 2920 nM in test [1] (read-out: Ki); 46 nM at Histamine H1 receptor; “Not Active” in [3]; 81 nM in [2] (read-out: Ki). Moreover, the Ki on D(4) dopamine receptor (read-out: Ki) is 100 nM; in test [7] it was 4740 nM; in [6], 28.3 nM; in [8], above 10000 nM.
On to `O=C(CCCCN1CCN(c2ncccn2)CC1)c1nc2ccccc2s1`, for which the figures for the Ki entry in test [3], in test [2] and in test [6] were “Not Active”, “Not Active” and 3.6 nM, respectively.
With `O=C(CCCCN1CCN(c2ccccc2)CC1)c1nc2ccccc2s1`, the figures for the Ki (on D(4) dopamine receptor (read-out: Ki); in [6]) were 105 nM and 3.6 nM, respectively.
Take `O=C(CCCCN1CCC(c2ccccc2)CC1)c1nc2ccccc2s1`: the Ki in [4] was found to be 3740 nM; on D(2) dopamine receptor, 642 nM; in test [5] it was 3.4 nM; in test [1] (read-out: Ki) it was 107 nM; on Histamine H1 receptor, 52 nM; in test [2] (read-out: Ki) it was 64 nM. Moreover, the Ki was 180 nM on D(4) dopamine receptor (read-out: Ki), 7.3 nM in [6] and 49 nM in test [8].
On D(2) dopamine receptor, `N#Cc1ccc2[nH]cc(CCCCN3CCN(c4ccc5oc(C(N)=O)cc5c4)CC3)c2c1` [VILAZODONE] returned an inhibition constant (Ki) of 666 nM.
